Data published in patent US9540377B2, “2,6,7,8 substituted purines as HDM2 inhibitors” (Merck Sharp & Dohme Corp., priority 2013, dated 2017).

Target: HDM2 (truncated, residues 17 to 125, containing p53 binding surface) (Homo sapiens (Human), UniProt Q00987)
Assay: HDM2 FRET assay (inhibition of binding of FITC labeled p53-site peptide to HDM2)
Description: IC50 DETERMINATIONS: Dose-response curves were plotted from the inhibition data, from 10 point serial dilutions of inhibitory compounds. Concentration of compound was plotted against em520/Cem495 ratio signal. To generate IC50 values, the dose-response curves were fitted to a standard sigmoidal curve and IC50 values were derived by nonlinear regression analysis.

Sequence of HDM2 (truncated, residues 17 to 125, containing p53 binding surface) (Q00987 17-125): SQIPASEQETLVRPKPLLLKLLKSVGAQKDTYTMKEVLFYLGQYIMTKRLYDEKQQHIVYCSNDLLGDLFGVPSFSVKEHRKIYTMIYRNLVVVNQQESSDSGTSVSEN

SMILES	IC50 (Table 16)	IC50 (Table 23)
C[C@H]1CC[C@H](Cn2c(N3CCO[C@H]4CCCC[C@H]43)nc3nc(-c4noc(=O)[nH]4)nc(-c4cncc(Cl)c4)c32)CC1 (racemic) [Example 16.131, 3-{6-(5-chloropyridin-3-yl)-7-[(trans-4-methylcyclohexyl)methyl]-8-[(cis)-octahydro-4H-1,4-benzoxazin-4-yl]-7H-purin-2-yl}-1,2,4-oxadiazol-5(4H)-one]	35 nM	
Cc1nnc(C2CCCN2c2nc3nc(-c4noc(=O)[nH]4)nc(-c4cncc(Cl)c4)c3n2C[C@H]2CC[C@H](C)CC2)o1 (mixture of isomers) [Example 16.141, 3-{6-(5-chloropyridin-3-yl)-7-[(trans-4-methylcyclohexyl)methyl]-8-[2-(5-methyl-1,3,4-oxadiazol-2-yl)pyrrolidin-1-yl]-7H-purin-2-yl}-1,2,4-oxadiazol-5(4H)-one]	26.8 nM	
Cc1noc(C2CCCN2c2nc3nc(-c4noc(=O)[nH]4)nc(-c4cncc(Cl)c4)c3n2C[C@H]2CC[C@H](C)CC2)n1 (mixture of isomers) [Example 16.143, 3-{6-(5-chloropyridin-3-yl)-7-[(trans-4-methylcyclohexyl)methyl]-8-[2-(3-methyl-1,2,4-oxadiazol-5-yl)pyrrolidin-1-yl]-7H-purin-2-yl}-1,2,4-oxadiazol-5(4H)-one]	1.48 nM	
Cc1noc(C2CCCN2c2nc3nc(C(=O)O)nc(-c4cncc(Cl)c4)c3n2C[C@H]2CC[C@H](C)CC2)n1 (mixture of isomers) [Example 16.145, 6-(5-chloropyridin-3-yl)-7-[(trans-4-methylcyclohexyl)methyl]-8-[2-(3-methyl-1,2,4-oxadiazol-5-yl)pyrrolidin-1-yl]-7H-purine-2-carboxylic acid]	3.92 nM	
Cc1noc(C2CCCN2c2nc3nc(-c4n[nH]c(=O)o4)nc(-c4cncc(Cl)c4)c3n2C[C@H]2CC[C@H](C)CC2)n1 (mixture of isomers) [Example 16.146, 5-{6-(5-chloropyridin-3-yl)-7-[(trans-4-methylcyclohexyl)methyl]-8-[2-(3-methyl-1,2,4-oxadiazol-5-yl)pyrrolidin-1-yl]-7H-purin-2-yl}-1,3,4-oxadiazol-2(3H)-one]	3.04 nM	
CO[C@H]1CCN(c2nc3nc(-c4n[nH]c(=O)o4)nc(-c4cncc(Cl)c4)c3n2C[C@H]2CC[C@H](C)CC2)[C@@H](C)C1 (racemic) [Example 16.154, 5-{6-(5-chloropyridin-3-yl)-8-[(cis)-4-methoxy-2-methylpiperidin-1-yl]-7-[(trans-4-methylcyclohexyl)methyl]-7H-purin-2-yl}-1,3,4-oxadiazol-2(3H)-one]	67.2 nM	
CO[C@@H]1CCN(c2nc3nc(-c4n[nH]c(=O)o4)nc(-c4cncc(Cl)c4)c3n2C[C@H]2CC[C@H](C)CC2)[C@@H](C)C1 (racemic) [Example 16.155, 5-{6-(5-chloropyridin-3-yl)-8-[(trans)-4-methoxy-2-methylpiperidin-1-yl]-7-[(trans-4-methylcyclohexyl)methyl]-7H-purin-2-yl}-1,3,4-oxadiazol-2(3H)-one]	49.1 nM	
COCCOc1cc(Cl)cc(-c2nc(-c3noc(=O)[nH]3)nc3nc(N4CCO[C@@H]5CCC[C@H]54)n(C[C@H]4CC[C@H](C)CC4)c23)c1 (racemic) [Example 16.160, 3-{6-[3-chloro-5-(2-methoxyethoxyl)phenyl]-8-[(trans)-hexahydrocyclopenta[b][1,4]oxazin-4(4aH)-yl]-7-[(trans-4-methylcyclohexyl)methyl]-7H-purin-2-yl}-1,2,4-oxadiazol-5(4H)-one]	21 nM	
Cc1ncc(Cl)cc1-c1nc(-c2noc(=O)[nH]2)nc2nc(N3CCO[C@@H]4CCC[C@H]43)n(C[C@H]3CC[C@H](C)CC3)c12 (racemic) [Example 16.164, 3-{6-(5-chloro-2-methylpyridin-3-yl)-8-[(trans)-hexahydrocyclopenta [b][1,4]oxazin-4(4aH)-yl]-7-[(trans-4-methylcyclohexyl)methyl]-7H-purin-2-yl}-1,2,4-oxadiazol-5(4H)-one]	2.09 nM	
C[C@H]1CC[C@H](Cn2c(C(O)C3CCCCC3)nc3nc(-c4noc(=O)[nH]4)nc(-c4cccc(Cl)c4)c32)CC1 (mixture of isomers) [Example 23.5, 3-{6-(3-chlorophenyl)-8-[cyclohexyl(hydroxy)methyl]-7-[(trans-4-methylcyclohexyl)methyl]-7H-purin-2-yl}-1,2,4-oxadiazol-5(4H)-one]		7.17 nM
C[C@H]1CC[C@H](Cn2c(C(O)C3CCCCC3)nc3nc(-c4n[nH]c(=O)o4)nc(-c4cccc(Cl)c4)c32)CC1 (mixture of isomers) [Example 23.7, 5-{6-(3-chlorophenyl)-8-[cyclohexyl(hydroxy)methyl]-7-[(trans-4-methylcyclohexyl)methyl]-7H-purin-2-yl}-1,3,4-oxadiazol-2(3H)-one]		20.2 nM
CC(O)(c1nc2nc(-c3noc(=O)[nH]3)nc(-c3cccc(Cl)c3)c2n1C[C@H]1CC[C@H](C)CC1)C1CCCCC1 (mixture of isomers) [Example 23.10, 3-{6-(3-chlorophenyl)-8-(1-cyclohexyl-1-hydroxyethyl)-7-[(trans-4-methylcyclohexyl)methyl]-7H-purin-2-yl}-1,2,4-oxadiazol-5(4H)-one]		15.6 nM
CC(O)(c1nc2nc(-c3n[nH]c(=O)o3)nc(-c3cccc(Cl)c3)c2n1C[C@H]1CC[C@H](C)CC1)C1CCCCC1 (mixture of isomers) [Example 23.11, 5-{6-(3-chlorophenyl)-8-(1-cyclohexyl-1-hydroxyethyl)-7-[(trans-4-methylcyclohexyl)methyl]-7H-purin-2-yl}-1,3,4-oxadiazol-2(3H)-one]		214 nM
COC(c1nc2nc(-c3n[nH]c(=O)o3)nc(-c3cccc(Cl)c3)c2n1C[C@H]1CC[C@H](C)CC1)C1CCCCC1 (mixture of isomers) [Example 23.15, 5-{6-(3-chlorophenyl)-8-[cyclohexyl(methoxy)methyl]-7-[(trans-4-methylcyclohexyl)methyl]-7H-purin-2-yl}-1,3,4-oxadiazol-2(3H)-one]		23 nM
COC(c1nc2nc(-c3n[nH]c(=O)o3)nc(-c3cccc(Cl)c3)c2n1C[C@H]1CC[C@H](C)CC1)C1CCOCC1 (mixture of isomers) [Example 23.16, 5-{6-(3-chlorophenyl)-8-[methoxy(tetrahydro-2H-pyran-4-yl)methyl]-7-[(trans-4-methylcyclohexyl)methyl]-7H-purin-2-yl}-1,3,4-oxadiazol-2(3H)-one]		12.3 nM
COC(c1nc2nc(-c3noc(=O)[nH]3)nc(-c3cncc(Cl)c3)c2n1C[C@H]1CC[C@H](C)CC1)C1CCOCC1 (mixture of isomers) [Example 23.18, 3-{6-(5-chloropyridin-3-yl)-8-[methoxy(tetrahydro-2H-pyran-4-yl)methyl]-7-[(trans-4-methylcyclohexyl)methyl]-7H-purin-2-yl}-1,2,4-oxadiazol-5(4H)-one]		24.1 nM
COC(c1nc2nc(-c3n[nH]c(=O)o3)nc(-c3cncc(Cl)c3)c2n1C[C@H]1CC[C@H](C)CC1)C1CCOCC1 (mixture of isomers) [Example 23.20, 5-{6-(5-chloropyridin-3-yl)-8-[methoxy(tetrahydro-2H-pyran-4-yl)methyl]-7-[(trans-4-methylcyclohexyl)methyl]-7H-purin-2-yl}-1,3,4-oxadiazol-2(3H)-one]		27.6 nM
COC(c1nc2nc(-c3n[nH]c(=O)o3)nc(-c3cncc(Cl)c3)c2n1C[C@H]1CC[C@H](C)CC1)C1CCCCC1 (mixture of isomers) [Example 23.22, 5-{6-(5-chloropyridin-3-yl)-8-[cyclohexyl(methoxy)methyl]-7-[(trans-4-methylcyclohexyl)methyl]-7H-purin-2-yl}-1,3,4-oxadiazol-2(3H)-one]		12 nM
COC(c1nc2nc(-c3n[nH]c(=O)o3)nc(-c3cncc(Cl)c3)c2n1C[C@H]1CC[C@H](C)CC1)C1CCCC1 (mixture of isomers) [Example 23.23, 5-{6-(5-chloropyridin-3-yl)-8-[cyclopentyl(methoxy)methyl]-7-[(trans-4-methylcyclohexyl)methyl]-7H-purin-2-yl}-1,3,4-oxadiazol-2(3H)-one]		8.78 nM
C[C@H]1CC[C@H](Cn2c(C(F)C3CCCCC3)nc3nc(-c4noc(=O)[nH]4)nc(-c4cccc(Cl)c4)c32)CC1 (mixture of isomers) [Example 23.29, 3-{6-(3-chlorophenyl)-8-[cyclohexyl(fluoro)methyl]-7-[(trans-4-methylcyclohexyl)methyl]-7H-purin-2-yl}-1,2,4-oxadiazol-5(4H)-one]		34.8 nM
COC(C)(c1ncoc1C)c1nc2nc(-c3noc(=O)[nH]3)nc(-c3cccc(Cl)c3)c2n1C[C@H]1CC[C@H](C)CC1 (mixture of isomers) [Example 23.57, 3-{6-(3-chlorophenyl)-8-[1-methoxy-1-(5-methyl-1,3-oxazol-4-yl)ethyl]-7-[(trans-4-methylcyclohexyl)methyl]-7H-purin-2-yl}-1,2,4-oxadiazol-5(4H)-one]		2.07 nM
CC(F)(c1nc2nc(-c3n[nH]c(=O)o3)nc(-c3cncc(Cl)c3)c2n1C[C@H]1CC[C@H](C)CC1)C1CCCC1 (mixture of isomers) [Example 23.58, 5-{6-(5-chloropyridin-3-yl)-8-(1-cyclopentyl-1-fluoroethyl)-7-[(trans-4-methylcyclohexyl)methyl]-7H-purin-2-yl}-1,3,4-oxadiazol-2(3H)-one]		1.95 nM
COC(c1nc2nc(-c3noc(=O)[nH]3)nc(-c3cncc(Cl)c3)c2n1C[C@H]1CC[C@H](C)CC1)C1CCCC1 (mixture of isomers) [Example 23.61, 3-{6-(5-chloropyridin-3-yl)-8-[cyclopentyl(methoxy)methyl]-7-[(trans-4-methylcyclohexyl)methyl]-7H-purin-2-yl}-1,2,4-oxadiazol-5(4H)-one]		4.64 nM
COC(C)(c1nc2nc(-c3noc(=O)[nH]3)nc(-c3cncc(Cl)c3)c2n1C[C@H]1CC[C@H](C)CC1)C1CCCC1 (mixture of isomers) [Example 23.71, 3-{6-(5-chloropyridin-3-yl)-8-(1-cyclopentyl-1-methoxyethyl)-7-[(trans-4-methylcyclohexyl)methyl]-7H-purin-2-yl}-1,2,4-oxadiazol-5(4H)-one]		1.29 nM
